Experimental data published in patent US11118200B2, “Method for preparing amines from aldehydes and ketones by biocatalysis” (COMMISSARIAT A L'ENERGIE ATOMIQUE ET AUX ENERGIES …, priority 2017, dated 2021).
Marks after values point to notes of the source that are not given here. Values belong to the compound of their own block, whether it stands above or below them.

Assays:
enzyme of SEQ ID NO:1 [1] = test: Screening of carbonyl-containing compounds with ammonia as amine source (specific activity, absorbance at 340 nm); assay type: biochemical, Mycobacterium smegmatis; conditions: for Specific activity, SEQ ID NO: 1: 10 mM of carbonyl-containing compound, ammonia as amine source; for activity of enzyme of SEQ ID NO:1 towards the substrate (in words): reductive amination
Protocol: (§1) All the reactions were conducted at 25° C. in spectrophotometric cell (10 mm light path). To a mixture of ammonium formate buffer (2 M NH4HCO2/NH4OH, pH 9.5), NADH or NADPH (0.2 mM) and an appropriate amount of purified enzyme was added.

enzyme of SEQ ID NO:3 [2] = test: as above; assay type: biochemical, Microbacterium sp. MA1; conditions: for Specific activity, SEQ ID NO: 3: 10 mM of carbonyl-containing compound, ammonia as amine source; for activity of enzyme of SEQ ID NO:3 towards the substrate (in words): reductive amination
Protocol: as §1

enzyme of SEQ ID NO:2 [3] = test: as above; assay type: biochemical, Cystobacter fuscus DSM 2262; conditions: for Specific activity, SEQ ID NO: 2: 10 mM of carbonyl-containing compound, ammonia as amine source; for activity of enzyme of SEQ ID NO:2 towards the substrate (in words): reductive amination
Protocol: as §1

PheDH-AmDH K77S/N276L = PheDH-AmDH K77S/N276L (Pseudobacillus badius, UniProt Q59224, K78S/N277L); conditions: prior-art engineered enzyme; cited from earlier work
PheDH-AmDH K77S/N276L, sequence (Q59224 whole entry K78S/N277L): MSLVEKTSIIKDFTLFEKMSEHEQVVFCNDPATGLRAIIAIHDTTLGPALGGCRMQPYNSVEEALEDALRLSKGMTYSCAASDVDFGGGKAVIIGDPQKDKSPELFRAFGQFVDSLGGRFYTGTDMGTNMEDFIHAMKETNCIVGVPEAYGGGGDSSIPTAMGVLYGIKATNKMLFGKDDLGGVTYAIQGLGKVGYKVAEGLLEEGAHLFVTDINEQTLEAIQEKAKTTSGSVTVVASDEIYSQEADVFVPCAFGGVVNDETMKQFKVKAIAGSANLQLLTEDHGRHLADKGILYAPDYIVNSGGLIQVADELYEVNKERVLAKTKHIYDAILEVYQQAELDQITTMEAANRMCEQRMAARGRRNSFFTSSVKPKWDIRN
enzyme of SEQ ID NO:4 [4] = test: Screening of carbonyl-containing compounds with ammonia as amine source (specific activity, absorbance at 340 nm); assay type: biochemical, Aminomonas paucivorans DSM 12260; design: key to Detection of the expected compound, SEQ ID NO: 4: d: detected activity; nd: not detected activity; conditions: for activity of enzyme of SEQ ID NO:4 towards the substrate (in words): reductive amination
Protocol: (§2) All the reactions were conducted at 25° C. in spectrophotometric cell (10 mm light path). To a mixture of ammonium formate buffer (2 M NH4HCO2/NH4OH, pH 9.5), NADH or NADPH (0.2 mM) and an appropriate amount of purified enzyme was added. Carbonyl-containing compound (5 or 10 mM) is then added to initiate the reaction (reaction final volume 100 μL). The initial slope measured at 340 nm determined the specific activity of the enzyme according to Beer-Lambert's law and the molar absorptivity of β-NADH (ϵ=6298 M^−1 cm^−1).

enzyme of SEQ ID NO:1 [5] = test: Screening of carbonyl-containing compounds with methylamine as amine source; assay type: biochemical, Mycobacterium smegmatis; conditions: preliminary; for Specific activity, SEQ ID NO: 1: methylamine (500 mM) as amine source, NADH/NADPH (0.1 mM each), carbonyl-containing compound 5 mM; for activity of enzyme of SEQ ID NO:1 on the substrate with methylamine (in words): methylamine as amine source
Protocol: as §2, with “of TRIS.HCl” for “of ammonium formate”, “buffer (50 mM,” for “buffer (2 M NH4HCO2/NH4OH,”, “NADH and” for “NADH or”, “NADPH (0.1 mM each), methylamine (500” for “NADPH (0.2”, “(5” for “(5 or 10”

enzyme of SEQ ID NO:5 = test: as above; assay type: biochemical, Mycobacterium vaccae ATCC 25954; conditions: preliminary; for Specific activity, SEQ ID NO: 5: methylamine (500 mM) as amine source, NADH/NADPH (0.1 mM each), carbonyl-containing compound 5 mM; for activity of enzyme of SEQ ID NO:5 on the substrate with methylamine (in words): methylamine as amine source
Protocol: as §2, with “of TRIS.HCl” for “of ammonium formate”, “buffer (50 mM,” for “buffer (2 M NH4HCO2/NH4OH,”, “NADH and” for “NADH or”, “NADPH (0.1 mM each), methylamine (500” for “NADPH (0.2”, “(5” for “(5 or 10”

enzyme of SEQ ID NO:4 [6] = test: as above; assay type: biochemical, Aminomonas paucivorans DSM 12260; conditions: preliminary
Protocol: as §2, with “of TRIS.HCl” for “of ammonium formate”, “buffer (50 mM,” for “buffer (2 M NH4HCO2/NH4OH,”, “NADH and” for “NADH or”, “NADPH (0.1 mM each), methylamine (500” for “NADPH (0.2”, “(5” for “(5 or 10”

enzyme of SEQ ID NO:2 [7] = test: as above; assay type: biochemical, Cystobacter fuscus DSM 2262; conditions: preliminary
Protocol: as §2, with “of TRIS.HCl” for “of ammonium formate”, “buffer (50 mM,” for “buffer (2 M NH4HCO2/NH4OH,”, “NADH and” for “NADH or”, “NADPH (0.1 mM each), methylamine (500” for “NADPH (0.2”, “(5” for “(5 or 10”

enzyme of SEQ ID NO:3 [8] = test: as above; assay type: biochemical, Microbacterium sp. MA1; conditions: preliminary; for Specific activity, SEQ ID NO: 3: methylamine (500 mM) as amine source, NADH/NADPH (0.1 mM each), carbonyl-containing compound 5 mM; for activity of enzyme of SEQ ID NO:3 on the substrate with methylamine (in words): methylamine as amine source
Protocol: as §2, with “of TRIS.HCl” for “of ammonium formate”, “buffer (50 mM,” for “buffer (2 M NH4HCO2/NH4OH,”, “NADH and” for “NADH or”, “NADPH (0.1 mM each), methylamine (500” for “NADPH (0.2”, “(5” for “(5 or 10”

Bbad-AmDH = conditions: as described in Pushpanath et al.; cited from earlier work
Cal-AmDH = conditions: as described in Pushpanath et al.; cited from earlier work
[9] = 0.2 mM NADPH (best of NADH/NADPH)
[10] = 0.2 mM NADH (best of NADH/NADPH)
[11] = 0.2 mM NADPH (best of NADH/NADPH), listed as drawing 134
[12] = 0.2 mM NADH (best of NADH/NADPH), listed as drawing 150
[13] = methylamine (500 mM) as amine source, NADH/NADPH (0.1 mM each), carbonyl-containing compound 5 mM
[14] = 0.2 mM NADH (best of NADH/NADPH), listed as drawing 130

Structure (SMILES): CC1CCCCC1=O (racemic) [2-methylcyclohexanone]
Specific activity, SEQ ID NO: 1 (enzyme of SEQ ID NO:1 [1]; [9]): 175.3 mU.mg^-1 | Specific activity, SEQ ID NO: 1 (enzyme of SEQ ID NO:1 [1]; 0.2 mM NADPH (best of NADH/NADPH), listed as drawing 132): 175.3^b mU.mg^-1 | Specific activity, SEQ ID NO: 3 (enzyme of SEQ ID NO:3 [2]; [10]): 337.0 mU.mg^-1 | Specific activity, SEQ ID NO: 3 (enzyme of SEQ ID NO:3 [2]; 0.2 mM NADH (best of NADH/NADPH), listed as drawing 132): 337.0a mU.mg^-1 | Specific activity, SEQ ID NO: 2 (enzyme of SEQ ID NO:2 [3]; [9]): 14.8^b mU.mg^-1 | specific activity of PheDH-AmDH K77S/N276L (PheDH-AmDH K77S/N276L): 19.3 mU·mg^−1

Structure (SMILES): CC1CCCC(=O)C1 (racemic) [3-methylcyclohexanone]
Specific activity, SEQ ID NO: 1 (enzyme of SEQ ID NO:1 [1]; [9]): 160.9 mU.mg^-1 | Specific activity, SEQ ID NO: 1 (enzyme of SEQ ID NO:1 [1]; [11]): 160.9^b mU.mg^-1 | Specific activity, SEQ ID NO: 3 (enzyme of SEQ ID NO:3 [2]; [9]): 206.5 mU.mg^-1 | Specific activity, SEQ ID NO: 3 (enzyme of SEQ ID NO:3 [2]; [11]): 206.5^b mU.mg^-1 | Specific activity, SEQ ID NO: 2 (enzyme of SEQ ID NO:2 [3]; [9]): 37.0^b mU.mg^-1 | specific activity of PheDH-AmDH K77S/N276L (PheDH-AmDH K77S/N276L): 41.1 mU·mg^−1

activity of enzyme of SEQ ID NO:1 towards the substrate (in words) (enzyme of SEQ ID NO:1 [1]): inactive | activity of enzyme of SEQ ID NO:3 towards the substrate (in words) (enzyme of SEQ ID NO:3 [2]): inactive | activity of enzyme of SEQ ID NO:2 towards the substrate (in words) (enzyme of SEQ ID NO:2 [3]): inactive | activity of enzyme of SEQ ID NO:4 towards the substrate (in words) (enzyme of SEQ ID NO:4 [4]): inactive
Structure (SMILES): CC(=O)CC(N)C(=O)O (stereo not shown) [2-amino-4-oxopentanoic acid]

Structure (SMILES): CC(C)C=O [2-methylpropanal]
Specific activity, SEQ ID NO: 1 (enzyme of SEQ ID NO:1 [1]; [10]): 556.5 mU.mg^-1 | Specific activity, SEQ ID NO: 1 (enzyme of SEQ ID NO:1 [1]; [12]): 556.5^a mU.mg^-1 | Specific activity, SEQ ID NO: 3 (enzyme of SEQ ID NO:3 [2]; [10]): 541.0 mU.mg^-1 | Specific activity, SEQ ID NO: 3 (enzyme of SEQ ID NO:3 [2]; [12]): 541.0^a mU.mg^-1 | Specific activity, SEQ ID NO: 1 (enzyme of SEQ ID NO:1 [5]): 144.5 mU.mg-^1 | activity of enzyme of SEQ ID NO:1 on the substrate with methylamine (in words) (enzyme of SEQ ID NO:1 [5]): active | Specific activity, SEQ ID NO: 5 (enzyme of SEQ ID NO:5): 262.6 mU.mg-^1 | activity of enzyme of SEQ ID NO:5 on the substrate with methylamine (in words) (enzyme of SEQ ID NO:5): active | Specific activity, SEQ ID NO: 4 (enzyme of SEQ ID NO:4 [6]; [13]): 30.3 mU.mg-^1 | activity of enzyme of SEQ ID NO:4 on the substrate with methylamine (in words) (enzyme of SEQ ID NO:4 [6]; methylamine as amine source): active | Specific activity, SEQ ID NO: 2 (enzyme of SEQ ID NO:2 [3]; [10]): 119.2^a mU.mg^-1 | Specific activity, SEQ ID NO: 2 (enzyme of SEQ ID NO:2 [7]; [13]): 150.2 mU.mg-^1 | activity of enzyme of SEQ ID NO:2 on the substrate with methylamine (in words) (enzyme of SEQ ID NO:2 [7]; methylamine as amine source): active | Specific activity, SEQ ID NO: 3 (enzyme of SEQ ID NO:3 [8]): 851.3 mU.mg-^1 | activity of enzyme of SEQ ID NO:3 on the substrate with methylamine (in words) (enzyme of SEQ ID NO:3 [8]): active

activity of enzyme of SEQ ID NO:1 towards the substrate (in words) (enzyme of SEQ ID NO:1 [1]): inactive | activity of enzyme of SEQ ID NO:3 towards the substrate (in words) (enzyme of SEQ ID NO:3 [2]): inactive | activity of enzyme of SEQ ID NO:2 towards the substrate (in words) (enzyme of SEQ ID NO:2 [3]): inactive | activity of enzyme of SEQ ID NO:4 towards the substrate (in words) (enzyme of SEQ ID NO:4 [4]): inactive
Structure (SMILES): CC(=O)CCC(=O)O [4-oxopentanoic acid]

Structure (SMILES): O=C1CCCCC1 [cyclohexanone]
Specific activity, SEQ ID NO: 1 (enzyme of SEQ ID NO:1 [1]; [10]): 196.2 mU.mg^-1 | Specific activity, SEQ ID NO: 1 (enzyme of SEQ ID NO:1 [1]; [14]): 196.2^a mU.mg^-1 | specific activity of Bbad-AmDH (Bbad-AmDH): 11.3 mU·mg^−1 | specific activity of Cal-AmDH (Cal-AmDH): 12.7 mU·mg^−1 | Specific activity, SEQ ID NO: 3 (enzyme of SEQ ID NO:3 [2]; [10]): 614.5 mU.mg^-1 | Specific activity, SEQ ID NO: 3 (enzyme of SEQ ID NO:3 [2]; [14]): 614.5^a mU.mg^-1 | Specific activity, SEQ ID NO: 1 (enzyme of SEQ ID NO:1 [5]): 10.1 mU.mg-^1 | activity of enzyme of SEQ ID NO:1 on the substrate with methylamine (in words) (enzyme of SEQ ID NO:1 [5]): active | Specific activity, SEQ ID NO: 5 (enzyme of SEQ ID NO:5): 12.6 mU.mg-^1 | activity of enzyme of SEQ ID NO:5 on the substrate with methylamine (in words) (enzyme of SEQ ID NO:5): active | Specific activity, SEQ ID NO: 2 (enzyme of SEQ ID NO:2 [3]; [10]): 135.9 mU.mg^-1 | Specific activity, SEQ ID NO: 2 (enzyme of SEQ ID NO:2 [3]; [14]): 135.9^a mU.mg^-1 | specific activity of PheDH-AmDH K77S/N276L (PheDH-AmDH K77S/N276L): 27 mU·mg^−1 | Specific activity, SEQ ID NO: 3 (enzyme of SEQ ID NO:3 [8]): 90.4 mU.mg-^1 | activity of enzyme of SEQ ID NO:3 on the substrate with methylamine (in words) (enzyme of SEQ ID NO:3 [8]): active

Structure (SMILES): O=C1CCCCC1 [drawing 120]
Specific activity, SEQ ID NO: 4 (enzyme of SEQ ID NO:4 [4]; 0.2 mM NADH (best of NADH/NADPH), 10 mM of carbonyl-containing compound, ammonia as amine source): 9.82^a mU.mg^-1 | Detection of the expected compound, SEQ ID NO: 4 (enzyme of SEQ ID NO:4 [4]; ammonia as amine source, pH 9.5, 25° C.): d
